In this test the target is Histone-lysine N-methyltransferase EZH2 (Homo sapiens, UniProt Q15910). Briefly: Inhibition of EZH2 Y641F mutant in PRC2 complex (unknown origin) using RKQLATKAARK(Me3)SAPATGGVKKP-NH2 peptide substrate preincubated for 30 mins followed by addition of [3H]-SAM measured after 2 hrs by Topcount scintillation proximity assay.

SMILES strings stand for the structures. pIC50: −log10 of the molar value.

Among the data in BindingDB's records for doi:10.1021/acs.jmedchem.6b01315 (Constellation Pharmaceuticals, 2016) are IC50 values, retold here.

In general, pIC50 refers to the negative decadic logarithm of the IC50, by convention in mol/L. Read a low pIC50 as a high IC50. In the case of `COc1cc(C)[nH]c(=O)c1CNC(=O)c1c(C)n([C@H](C)C2CCNCC2)c2ccccc12`, the pIC50 is 8.41.

As for `COc1cc(C)[nH]c(=O)c1CNC(=O)c1c(C)n([C@H](C)C2CCN(C)CC2)c2ccccc12`, the pIC50 was 8.77.

The compound `COc1cc(C)[nH]c(=O)c1CNC(=O)c1c(C)n([C@H](C)C2CCN(C(=O)C(C)C)CC2)c2ccccc12` showed a pIC50 of 7.80.

`COc1cc(C)[nH]c(=O)c1CNC(=O)c1c(C)n([C@H](C)C2CCN(C(=O)OC(C)C)CC2)c2ccccc12` gave a pIC50 of 8.39.

Regarding `COc1cc(C)[nH]c(=O)c1CNC(=O)c1c(C)n([C@H](C)C2CCN(C(=O)N(C)C)CC2)c2ccccc12`, the pIC50 is 8.05.

`COc1cc(C)[nH]c(=O)c1CNC(=O)c1c(C)n([C@H](C)C2CCN(C3COC3)CC2)c2ccccc12` showed a pIC50 of 8.77.

`CCOC(=O)CN1CCC([C@@H](C)n2c(C)c(C(=O)NCc3c(OC)cc(C)[nH]c3=O)c3ccccc32)CC1` had a pIC50 of 8.60.

As for `COc1cc(C)[nH]c(=O)c1CNC(=O)c1c(C)n([C@H](C)C2CCN(CCC(F)(F)F)CC2)c2ccccc12`, the pIC50 is 8.32.

The compound `COc1cc(C)[nH]c(=O)c1CNC(=O)c1c(C)n([C@H](C)C2CCN(CC(F)(F)C(F)F)CC2)c2ccccc12` showed a pIC50 of 8.48.

Consider `COc1cc(C)[nH]c(=O)c1CNC(=O)c1c(C)n([C@H](C)C2CCN(CC(F)F)CC2)c2ccccc12`, for which the pIC50 was 8.42.
